Experiments:
[1] = Hygroscopicity test; assay type: physicochemical; settings: 25° C., RH80%, 24 hours, hydrobromide
Description: An appropriate amount of a test product is taken and spread in a glass-stoppered weighing bottle that has been placed in an artificial climate box (temperature is 25° C.±1° C., relative humidity is 80%±2%) for 24 hours. The weighing bottle is opened, put together with the stopper in the artificial climate box (the temperature is 25° C.±1° C., the relative humidity is 80%±2%) for 24 hours, and then taken out. The moisture content of the test product before and after being placed in the artificial climate box is measured, and the hygroscopicity is measured by comparing the change in moisture content.

[2] = Toxicity test of a single intragastric administration to SD rats; assay type: in vivo; settings: both sexes, Sprague-Dawley (SD), rat, in vivo, po
Description: (§1) The safety of the hydrobromide of Compound Z in SD rats and beagle dogs was evaluated in accordance with the “Good Laboratory Practice” (2017) issued by the National Medical Products Administration (NMPA), and the acute toxicity test and 14-day long-term toxicity test were carried out, respectively.
(§2) Method: 40 SD rats were randomly divided into 4 groups, 10 rats in each group, half male and half female. The rats were given a single intragastric administration of a solvent of PEG400/Kolliphor® HS 15/ultrapure water (40/10/50, v/v/v) and the hydrobromide of Compound Z (200, 600 and 2000 mg/kg, based on the free base) dissolved in this solvent, respectively. After administration, observation was continued for 14 days, and dissection was performed on the 15th day as planned. During the test, clinical observations, body weight, feed consumption and anatomical and morphological observations by naked eyes were evaluated.

[3] = test system: SD rats; assay: as above; assay type: in vivo; settings: SD rats, single intragastric 200, 600 and 2000 mg/kg, 14 days observation
Description: as §1, §2

[4] = physchem; assay type: physicochemical; settings: 37 °C, water, thermodynamic from solid, Solubility in water
Description: About 10 mg of the test product is taken and put in a 1.5 mL sample tube, to which 1 mL of deionized water is added, and then the sample tube is placed in a constant temperature mixer and shaken at 37° C. for 30 minutes; after shaking, the sample tube is placed in a centrifuge to undergo centrifugation for 2 minutes. Then, 500 μL of the supernatant is taken and diluted with acetonitrile to an appropriate concentration, which is used as a test sample solution for HPLC analysis.
An appropriate amount of sample was weighed and put in a glass test tube, to which a selected solvent was gradually added. The clarification process was observed.

[5] = in vivo; set-up: species or system SD rats; settings: both sexes, Sprague-Dawley (SD), rat, po
Description: as §1
(§3) Method: 120 SD rats were randomly divided into 4 groups, 30 rats in each group, half male and half female. The rats were given an intragastric administration of a solvent of PEG400/Kolliphor® HS15/ultrapure water (40/10/50, v/v/v) and the hydrobromide (100, 300 and 600 mg/kg) of Compound Z dissolved in the solvent, respectively, once a day for 14 consecutive days; two-thirds of the animals in each group (20 animals in each group, half male and half female) were dissected after the end of the administration period (day 15); the remaining animals in each group (10 animals in each group, half male and half female) were dissected at the end of the 14-day recovery period (day 29). The following indexes were observed, measured and evaluated: clinical observations, body weight, feed consumption, ophthalmological examination, hematology, blood coagulation, plasma biochemistry and plasma electrolytes, urinalysis, anatomical and morphological observation by naked eyes, organ weight and histopathological examination, and the accompanying rat bone marrow micronucleus test.

[6] = test system: SD rats; assay: in vivo; settings: both, Sprague-Dawley (SD), rat, 600 mg/kg, 14 days
Description: as §1, §3

[7] = Toxicity test of a single intragastric administration to beagle dogs; assay type: in vivo; settings: both sexes, beagle, dog, in vivo, po
Description: as §1
(§4) Method: 8 beagle dogs were randomly divided into 4 groups, 2 dogs in each group, one male and one female. The dogs were given a single intragastric administration of a solvent of PEG400/Kolliphor® HS 15/ultrapure water (40/10/50, v/v/v) and the hydrobromide of Compound Z (50, 250 and 1000 mg/kg, based on the free base) dissolved in this solvent, respectively. After administration, observation was continued for 14 days, and dissection was performed on the 15th day as planned. Clinical observations, body weight, feed consumption, clinical pathology (blood, blood coagulation, plasma biochemistry), and morphological observation by naked eyes were evaluated.

[8] = test system: beagle dogs; assay: as above; assay type: in vivo; settings: beagle dogs, single intragastric 50, 250 and 1000 mg/kg
Description: as §1, §4

[9] = assay type: physicochemical; settings: 7 days
Description: The test product is placed in suitable clean containers, and then placed under conditions of high temperature (80° C.), high humidity (25° C., relative humidity 92.5%), and light (light intensity 4500±500 1× and 90 μw/cm^2), respectively, for 7 days, and samples are taken on the 7th day and tested according to the stability inspection items.

[10] = Toxicity test of beagle dogs by intragastric administration for 14 days and drug withdrawal for 14 days; assay type: in vivo; settings: both sexes, dog, in vivo, po; beagle dogs, males and females, intragastric once a day for 14 consecutive days, 14 days recovery; read-out: no-observed-adverse-effect level (NOAEL)
Description: as §1
(§5) Test method: 40 beagle dogs were randomly divided into 4 groups, 10 dogs in each group, half male and half female. The dogs were given an intragastric administration of a solvent of PEG400/Kolliphor® HS15/ultrapure water (40/10/50, v/v/v) and the hydrobromide (30, 100 and 250 mg/kg) of Compound Z dissolved in the solvent, respectively, once a day for 14 consecutive days; three-fifths of the animals in each group (6 animals in each group, half male and half female) were dissected after the end of the administration period (day 15); the remaining animals in each group (4 animals in each group, half male and half female) were dissected at the end of the 14-day recovery period (day 29). The following indexes were observed, measured and evaluated: clinical observations, ophthalmological examination, body weight, feed consumption, body temperature, electrocardiogram (HR, PR interval, QRS interval, T wave amplitude, QT interval and QTcV interval), clinical Pathology (hematology, blood coagulation, plasma biochemistry, urine), pathological examination (morphological observation by naked eyes, organ weight, histopathological examination).

[11] = test system: beagle dogs; assay: as above; assay type: in vivo
Description: as §1, §5

[12] = listed as Hydrobromide of Compound Z with crystal form A

## Br.[2H]c1cc([C@]2(C#N)O[C@H](COC(=O)C(C)C)[C@@H](OC(=O)C(C)C)[C@H]2OC(=O)C(C)C)n2ncnc(N)c12 [Hydrobromide of Compound Z, (2R,3R,4R,5R)-2-(4-aminopyrrolo[2,1-f][1,2,4]triazin-7-yl-5-d)-2-cyano-5-(isobutyryloxymethyl)tetrahydrofuran-3,4-diyl bis(2-methylpropanoate) hydrobromide]
[1]
  Hygroscopicity: None
  increase in moisture content: no increase
[1]; [12]
  Hygroscopicity: no hygroscopicity
  increase in moisture content: RH80%, with an increase in moisture content of <0.1%,
[1]; listed as hydrobromide of Compound Z with crystal form A
  Hygroscopicity: no hygroscopicity
[1]; listed as hydrobromide of Compound Z
  Hygroscopicity: no hygroscopicity
[2]
  MTD at 14 days: ≥ 2000 mg/kg
[3]
  early death or euthanasia: no early death or euthanasia
[4]
  solubility at 30 min: 410 µg/mL
[5]
  NOAEL at 14 days: 100 mg/kg
[6]
  death: two animals in the 600 mg/kg dose group died
[7]
  MTD at 14 days: ≥ 1000 mg/kg
[8]
  accidental death: no accidental death
[9]
  Stability: Good stability under high temperature (80° C.), high
[10]
  NOAEL at 14 days: 30 mg/kg
[11]; beagle dogs, 250 mg/kg and 100 mg/kg intragastric once a day for 14 days
  adverse drug reactions: adverse drug reactions in ophthalmological examination, clinical pathology, pathological examination, and the like could be observed
[11]; beagle dogs, 30, 100 and 250 mg/kg intragastric once a day for 14 days
  accidental death: no accidental death
[11]; beagle dogs, after 14-day recovery period
  various indexes at the end of the recovery period: returned to normal or showed a recovery trend

From patent US20230312584A1, “SALT OF NUCLEOSIDE ANALOG, AND CRYSTAL FORM, PHARMACEUTICAL COMPOSITION AND USE THEREOF” (priority 2020, published 2023)
